Laboratory results published in patent US20120134940A1, “NANODISPERSIONS” (priority 2006, published 2012).

Settings: payload material itself
From the text: By selection of a carrier which is also soluble in both DMSO and one of water, ethanol and PPG (for example PVP/HPC) it is possible to obtain a nano-disperse form of either payload material in the carrier, which can be “dissolved” in water, ethanol or PPG.

solubility in DMSO: soluble
solubility in water, ethanol and poly-propylene glycol: insoluble
Structure (SMILES): COc1cc(C=O)cc(-c2cc(C=O)cc(OC)c2O)c1O [divanillin]
